Data as given in patent US20060251751A1, “Sophoridine and its use as an analgesic” (SHANGHAI FANGDA PHARMACEUTICALS, LTD., priority 2001, published 2006).
Marks after values point to notes of the source that are not given here.

How the values were obtained:
[1] = tested on: patients suffering from advanced cancers; assay: Clinical trials in more than 200 patients with advanced cancers; type: in vivo, human
[2] = tested on: tumor cells; conditions: cited from earlier work
[3] = tested on: Kunming mice; assay: Analgesic effect of sophoridine on mice models (acetic acid induced writhing method); type: in vivo; conditions: for Number of writhe (X ± SD): 0.6% acetic acid i.p.
Procedure: The analgesic activity of sophoridine was also tested in vivo in mice experimental models, using acetic acid induced writhing Method which are known to evaluate the pain in animals. Writhing test is a standard procedure for detecting and comparing analgesic activity in laboratory animals, and generally correlates well with human efficacy.
30 Male and 30 female Kunming mice weighing 18-22 g were used as experimental models. […] Then, the animals randomly divided into six groups, each group includes 10 animals. Five experimental groups intravenously received 25, 20, 15, 10 and 5 mg/Kg of the sophoridine suspended in a normal saline solution via the tail vein, respectively.
The frequency of writhing syndrome was counted for 5 minutes from 15 minutes after the injection of spophoridine or placebo. The control group received treatment only with the solvent (normal saline).

[4] = tested on: mice; assay: Effect of the opioid receptor antagonist naloxone on morphine- and sophoridine-induced analgesia; type: in vivo
Procedure: Following procedures of the previous Examples, screening and grouping of experimental animals was carried out. […] The animals of negative control were injected with normal saline. The pain thresholds (response latency time, seconds, of each animal was recorded at 15, 30, 60, and 90 minutes after administrations, respectively. The results are summarized in Table 4 below.

[5] = tested on: Male Kunming mice; assay: Analgesic effect of sophoridine on mice model (hot plate method); type: in vivo; conditions: for Pain thresholds (seconds) After administration: 10 minutes after administration; for Pain thresholds (seconds) Before administration: before administration (baseline)
Procedure: The analgesic activity of sophoridine was tested in vivo in mice experimental models, using Hot Plate Method, which are known to evaluate the pain in animals.
The method that was used is described by Eddy N. B. and Leimbach D. (J. Pharm. Exp. Ther. 107: 385-393, 1953) and somewhat modification is made in the present invention.
Male Kunming mice weighing 18-22 g were used as experimental model. The analgesic effect of the sophoridine was evaluated by analysing the behavioral response of the animals on a hot surface at 55° C.±0.5° C. The alkaloid compounds being tested were administered intravenously through the tail vein 10 minutes before starting the test.
Briefly, the process consisted of placing the animals on the plate and keeping them in a plastic cylinder 22 cm diameter and 11 cm high. The time the animals took to lick a paw or jump off the hot surface was determined. The animals were selected before starting the test that those with response latency (the pain threshold values before administrations) longer than 30 seconds were excluded from the experiment. The certificated animals divided into six groups (10 animals/group). Five experimental groups received 25, 20, 15, 10 and 5 mg/kg of the sophoridine suspended in a normal saline solution, respectively. The control group received treatment only with the solvent (normal saline).
10 minutes after administering the alkaloids being tested, the test was repeated and the maximum response latency time (seconds) took the animals to lick the hindlimb or jump off and run away was again recorded.

[6] = tested on: mice; assay: Comparison of analgesic effects and synergistic activity between sophoridine and morphine (hot plate method); type: in vivo; conditions: for Pain thresholds before admin.: before admin. (baseline)
Procedure: In five experimental groups, animals of each group received 25, 20, 15, 10 and 5 mg/kg of the sophoridine suspended in a normal saline solution, respectively.

[7] = tested on: acetylcholine level in central nervous system; assay: Preliminary study on mechanism of analgesic effect (acetylcholine level in CNS)
Excerpt: Therefore, sophoridine and derivatives thereof are also useful for treating patients suffering from neurodegenerative diseases, senile dementia of the Alzheimer's type (SDAT) and Pakinson's disease (PD).

[8] = sophoridine 25 mg/kg i.v., hot plate 55°C

## O=C1C=CC[C@@H]2[C@H]3CCCN4CCC[C@@H](CN12)[C@@H]34 [sophocarpine]
[1]
  effect on pain caused by malignant growth of cancer tissues (in words): significantly inhibit or alleviate mild to severe pain
  effect on proliferation of tumor cells (in words): inhibit proliferation of tumor cells

## O=C1CCC[C@@H]2[C@H]3CCCN4CCC[C@H](CN12)[C@@H]34 [Sophoridine]
[2]; Xuemei Li et al. 1987
  anti-tumor activities (in words): tumor cell-killing and tumor cell growth-inhibiting activities
[2]; Xuemei Li et al.
  effect on functions of hematopoietic and immunological systems (in words): does not inhibit the functions of hematopoietic and immunological systems
[3]; sophoridine 5 mg/kg i.v.
  Number of writhe (X ± SD): 23.2 ± 6.43
[3]; sophoridine 10 mg/kg i.v.
  Number of writhe (X ± SD): 14.1 ± 9.64
[3]; sophoridine 15 mg/kg i.v.
  Number of writhe (X ± SD): 9.9 ± 6.3
[3]; sophoridine 20 mg/kg i.v.
  Number of writhe (X ± SD): 1.5 ± 1.35
[3]; sophoridine 25 mg/kg i.v., counted for 5 minutes from 15 minutes after injection
  Number of writhe (X ± SD): 0***
[3]; writhing method, 5-25 mg/kg i.v.
  analgesic activity in mice models (in words): good analgesic activity
[4]; naloxone 2.0 mg/kg, morphine 10 mg/kg or sophoridine 20 mg/kg
  naloxone counteracting the analgesic effect (in words): ineffective in counteracting the effect
[4]; sophoridine alone 20 mg/kg i.v., 15 min.
  Pain thresholds after admin. (seconds) 15 min.: 34.5 ± 16.2 s
[4]; sophoridine alone 20 mg/kg i.v., 30 min.
  Pain thresholds after admin. (seconds) 30 min.: 23.8 ± 7.0 s
[4]; sophoridine alone 20 mg/kg i.v., 60 min.
  Pain thresholds after admin. (seconds) 60 min.: 21.8 ± 8.9 s
[4]; sophoridine alone 20 mg/kg i.v., 90 min.
  Pain thresholds after admin. (seconds) 90 min.: 18.3 ± 6.6 s
[4]; sophoridine alone 20 mg/kg i.v., before admin. (baseline)
  Pain thresholds before admin.: 17.9 ± 2.6 s
[1]
  effect on pain caused by malignant growth of cancer tissues (in words): significantly inhibit or alleviate mild to severe pain
  effect on proliferation of tumor cells (in words): inhibit proliferation of tumor cells
[1]; higher doses for a long term
  side effects of tolerance and addiction (in words): did not develop any side effects of tolerance and addiction
[5]; hot plate method, 5-25 mg/kg i.v.
  analgesic activity in mice models (in words): good analgesic activity
[5]; sophoridine 5 mg/kg i.v.
  Pain thresholds (seconds) After administration: 25.8 ± 20.74 s
  Pain thresholds (seconds) Before administration: 16.3 ± 6.02 s
[5]; sophoridine 10 mg/kg i.v.
  Pain thresholds (seconds) After administration: 24.8 ± 15.99 s
  Pain thresholds (seconds) Before administration: 11.7 ± 4.59 s
[5]; sophoridine 15 mg/kg i.v.
  Pain thresholds (seconds) After administration: 38.5 ± 17.19 s
  Pain thresholds (seconds) Before administration: 14.7 ± 4.62 s
[5]; sophoridine 20 mg/kg i.v.
  Pain thresholds (seconds) After administration: 57.1 ± 6.10 s
  Pain thresholds (seconds) Before administration: 12.4 ± 4.25 s
[5]; [8]
  Pain thresholds (seconds) After administration: 48.6 ± 19.14 s
  Pain thresholds (seconds) Before administration: 16.4 ± 6.48 s
[6]; sophoridine 5 mg/kg
  Pain thresholds after admin. (seconds) 15 min.: 17.5 ± 3.3 s
  Pain thresholds after admin. (seconds) 30 min.: 16.6 ± 6.5 s
  Pain thresholds after admin. (seconds) 60 min.: 16.0 ± 4.5 s
  Pain thresholds after admin. (seconds) 90 min.: 19.3 ± 5.4 s
  Pain thresholds before admin.: 17.45 ± 2.6 s
[6]; sophoridine 10 mg/kg
  Pain thresholds after admin. (seconds) 15 min.: 20.2 ± 7.2 s
  Pain thresholds after admin. (seconds) 30 min.: 28.0 ± 18.3 s
  Pain thresholds after admin. (seconds) 60 min.: 12.6 ± 5.9 s
  Pain thresholds after admin. (seconds) 90 min.: 20.5 ± 15.0 s
  Pain thresholds before admin.: 18.6 ± 4.9 s
[6]; sophoridine 15 mg/kg
  Pain thresholds after admin. (seconds) 15 min.: 32.9 ± 19.2 s
  Pain thresholds after admin. (seconds) 30 min.: 31.3 ± 17.5 s
  Pain thresholds after admin. (seconds) 60 min.: 15.2 ± 10.2 s
  Pain thresholds after admin. (seconds) 90 min.: 15.8 ± 5.7 s
  Pain thresholds before admin.: 16.45 ± 3.9 s
[6]; sophoridine 20 mg/kg
  Pain thresholds after admin. (seconds) 15 min.: 36.8 ± 18.2 s
  Pain thresholds after admin. (seconds) 30 min.: 24.6 ± 7.7 s
  Pain thresholds after admin. (seconds) 60 min.: 23.0 ± 9.9 s
  Pain thresholds after admin. (seconds) 90 min.: 19.3 ± 6.6 s
  Pain thresholds before admin.: 16.9 ± 2.5 s
[6]; sophoridine 25 mg/kg
  Pain thresholds after admin. (seconds) 15 min.: 44.3 ± 14.9 s
  Pain thresholds after admin. (seconds) 30 min.: 28.3 ± 11.4 s
  Pain thresholds after admin. (seconds) 60 min.: 20.3 ± 4.9 s
  Pain thresholds after admin. (seconds) 90 min.: 18.8 ± 6.3 s
  Pain thresholds before admin.: 15.4 ± 4.0 s
[6]; sophoridine in higher doses, hot plate
  analgesic activity compared to morphine hydrochloride (in words): comparable or better analgesic activity
[7]
  acetylcholine level in central nervous system (in words): significant increasing acetylcholine level
